Consider four molecules from US20260063641A1, “COMPOSITIONS AND METHODS FOR LABELING AND DETECTING BINDING PARTNERS” (UNIVERSITY OF UTAH RESEARCH FOUNDATION, priority 2022, published 2026).

Holding throughout (type): cell-based
One data set has as its target T1, NLuc-FKBP12F36V (Homo sapiens, UniProt P62942, F37V).
T1 construct: expressed in transfected cells
Kind of data set: FKBP12F36V cellular target engagement assay (competition with dTAG-13, NLuc/FLuc signal). The settings on record: for competitive displacement of dTAG-13 (FKBP12F36V cellular target engagement): mean±S.D. of n=3 technical replicates, FIG. 4D-F. From the text: This method, named the biotin targeting chimera (BioTAC) system, uses bifunctional molecules composed of a compound-of-interest linked to selective FKBP12F36V recruiter orthoAP1867, to recruit a ligandable proximity labeling enzyme (mTurbo-FKBP12F36V) to compound-bound complexes enabling their biotinylation and subsequent affinity purification (FIG. TA-B). To benchmark the BioTAC system for accurate detection of the direct targets of ligands the well-characterized BET protein inhibitor (+)-JQ1, which potently binds BRD2, BRD3 and BRD4 (as well as the testes-specific BET protein BRDT), was selected as a test case. A series of bifunctional molecules consisting of (+)-JQ1 conjugated to […] were synthesized via a variable linker (FIG. 1B, FIG. 4A-C). (+)-JQ1-bifunctional molecule cell permeability was measured using an FKBP12F36V cellular target engagement assay adapted from Nabet et. al Nat Commun 11, 4687 (2020). Briefly, FKBP12F36V binding molecules compete with an FKBP12F36V targeting PROTAC (dTAG-13), for NLuc-FKBP12F36V occupancy, rescuing degradation and resulting in an increase in NLuc/FLuc (control) signal relative to DMSO-treated cells. All synthesized compounds were comparably cell permeable (FIG. 4D-E).

Another data set has as its target T2, BRD4 (Homo sapiens, UniProt O60885).
T2 construct: host or cells: HEK293 transiently transfected with the BioTAC plasmid
The data set is described as follows: BioTAC proximity labeling, streptavidin pulldown and western blot for BRD4. The settings on record: variable concentrations of free (+)-JQ1 against 1 μM bifunctional (+)-JQ1 recruiters, all timepoints. As for the experimental part:
Next bifunctional molecule guided-proximity labeling experiments were performed using validated reagents. HEK293 cells transiently transfected with mTurbo-FKBP12F36V were treated with 100 μM biotin, 1 μM bifunctional (+)-JQ1 recruiters, and variable concentrations of free (+)-JQ1 to off-compete the bifunctional molecule and rescue biotinylation. Biotinylated proteins were isolated from cell lysates via streptavidin bead pulldown and analyzed by western blot for BRD4, a primary target of (+)-JQ1.
(§1) 0.6 million HEK293 cells were plated into wells containing 1 mL of complete media (DMEM, 10% FBS, 1% pen/strep) and incubated overnight. Cells were transiently transfected with 100 μL of OptiMEM media containing 1 μg of BioTAC plasmid and 3 μL of TransIT-2020 transfection reagent (Mirus, MIR5400) for 24 hr. Following a media change, cells were pre-treated with parental molecules or DMSO for 10 min, then treated with bifunctional compound for 10 min, and finally labeled in 100 μM biotin for the indicated time. Cells were washed twice with DPBS then harvested into 1.5 mL tubes. […] Protein concentration was determined by BCA assay (Thermo, 23225), then 100 ug protein was rotated overnight at 4° C. with 8 μL of streptavidin magnetic beads (Thermo, 88817) that had been prewashed twice in RIPA lysis buffer. […]
In general terms: In western blotting, separated proteins are transferred to a membrane and probed.

Another data set has as its target T3, MEK1 (Homo sapiens, UniProt Q02750).
T3 construct: Immunoblot analysis of MEK1/2 enrichment following treatment of HEK293 cells; host or cells: HEK293 transiently transfected with the BioTAC plasmid
The data set is described as follows: BioTAC proximity labeling, streptavidin enrichment and immunoblot for MEK1. The settings on record: HEK293 with miniTurbo-FKBP12F36V, 100 μM biotin, dose and time point optimization. As for the experimental part:
(§2) Bifunctional trametinib analogue JWJ-01-280/Cpd2 was synthesized, with a linker attachment informed by a reported trametinib-derived BRET probe named Tram-bo (FIG. 3B). […] The ability of the BioTAC system to detect both known interactors of trametinib was evaluated by Western blot, as described above.
as §1

The target of data set [1] is T4, MEK1:trametinib:KSR1 complex (Homo sapiens, UniProt Q02750).
T4 construct: Immunoblot analysis of MEK1 and KSR1 following treatment of HEK293 cells; host or cells: HEK293 transiently transfected with the BioTAC plasmid
T4 sequence (Q02750 whole entry, one chain of several): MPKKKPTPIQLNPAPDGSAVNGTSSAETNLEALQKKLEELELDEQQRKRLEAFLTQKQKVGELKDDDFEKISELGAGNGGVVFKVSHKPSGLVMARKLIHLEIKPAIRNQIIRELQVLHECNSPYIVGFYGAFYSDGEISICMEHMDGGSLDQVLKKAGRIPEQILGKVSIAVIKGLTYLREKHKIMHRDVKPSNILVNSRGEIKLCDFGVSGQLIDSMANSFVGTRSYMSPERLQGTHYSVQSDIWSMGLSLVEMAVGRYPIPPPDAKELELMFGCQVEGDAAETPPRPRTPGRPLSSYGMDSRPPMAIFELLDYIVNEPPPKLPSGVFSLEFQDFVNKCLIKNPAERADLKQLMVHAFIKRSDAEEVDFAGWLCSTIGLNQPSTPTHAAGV
Kind of data set: BioTAC detection of molecular glue complex by immunoblot of MEK1 and KSR1. The note with it: 4 hr treatment with 1 μM, 100 μM biotin. The procedure: as §2, §1

Entries after “also recorded” stand apart in the source; their conditions may differ.

T1 sequence (P62942 2-108 F37V limits assumed): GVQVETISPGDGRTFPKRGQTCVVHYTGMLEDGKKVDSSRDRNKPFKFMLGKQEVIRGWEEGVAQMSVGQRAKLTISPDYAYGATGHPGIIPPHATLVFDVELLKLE
T3 sequence (Q02750 whole entry): as the sequence (Q02750 whole entry, one chain of several) above
T3 sequence (as listed by the source partner): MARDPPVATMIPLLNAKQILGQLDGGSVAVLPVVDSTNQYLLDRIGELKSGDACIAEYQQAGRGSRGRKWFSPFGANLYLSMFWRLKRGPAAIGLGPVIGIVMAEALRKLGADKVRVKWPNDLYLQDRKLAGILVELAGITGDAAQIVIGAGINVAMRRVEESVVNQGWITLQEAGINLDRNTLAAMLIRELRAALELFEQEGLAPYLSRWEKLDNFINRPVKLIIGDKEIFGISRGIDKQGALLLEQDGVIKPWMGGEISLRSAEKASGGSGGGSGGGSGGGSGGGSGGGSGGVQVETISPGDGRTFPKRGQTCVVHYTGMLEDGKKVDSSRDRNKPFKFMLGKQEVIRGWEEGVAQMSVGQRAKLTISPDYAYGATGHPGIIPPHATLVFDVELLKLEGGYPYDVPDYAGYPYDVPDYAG

For `CC[C@H](C(=O)N1CCCC[C@H]1C(=O)O[C@H](CCc1ccc(OC)c(OC)c1)c1ccccc1OCC(=O)NCCOCCOCCNC(=O)C[C@@H]1N=C(c2ccc(Cl)cc2)c2c(sc(C)c2C)-n2c(C)nnc21)c1cc(OC)c(OC)c(OC)c1` [JWJ-01-236, (R)-1-(2-((14-((S)-4-(4-Chlorophenyl)-2,3,9-trimethyl-6H-thieno[3,2-f][1,2,4]triazolo[4,3-a][1,4]diazepin-6-yl)-2,13-dioxo-6,9-dioxa-3,12-diazatetradecyl)oxy)phenyl)-3-(3,4-dimethoxyphenyl)propyl (S)-1-((S)-2-(3,4,5-trimethoxyphenyl)butanoyl)piperidine-2-carboxylate], the “competitive displacement of dTAG-13 (FKBP12F36V cellular target engagement)” value at NLuc-FKBP12F36V is recorded as “competitive displacement of dTAG-13”.
On to `CC[C@H](C(=O)N1CCCC[C@H]1C(=O)O[C@H](CCc1ccc(OC)c(OC)c1)c1ccccc1OCC(=O)NCCCCCCCCNC(=O)C[C@@H]1N=C(c2ccc(Cl)cc2)c2c(sc(C)c2C)-n2c(C)nnc21)c1cc(OC)c(OC)c(OC)c1` [JWJ-01-255, (R)-1-(2-(2-((8-(2-((S)-4-(4-Chlorophenyl)-2,3,9-trimethyl-6H-thieno[3,2-f][1,2,4]triazolo[4,3-a][1,4]diazepin-6-yl)acetamido)octyl)amino)-2-oxoethoxy)phenyl)-3-(3,4-dimethoxyphenyl)propyl (S)-1-((S)-2-(3,4,5-trimethoxyphenyl)butanoyl)piperidine-2-carboxylate], for which, on NLuc-FKBP12F36V, the “competitive displacement of dTAG-13 (FKBP12F36V cellular target engagement)” value is recorded as “competitive displacement of dTAG-13”.
Consider (+)-JQ1 [reference compound], for which the “BRD4 pulldown in presence of free competitor” value at BRD4 is recorded as “dose dependent decrease in BRD4 pulldown”.
Turning to `CC[C@H](C(=O)N1CCCC[C@H]1C(=O)O[C@H](CCc1ccc(OC)c(OC)c1)c1ccccc1OCC(=O)NCCOCCOCCC(=O)Nc1cccc(-n2c(=O)n(C3CC3)c(=O)c3c(Nc4ccc(I)cc4F)n(C)c(=O)c(C)c32)c1)c1cc(OC)c(OC)c(OC)c1` [Cpd2, (R)-1-(2-(2-((2-(2-(3-((3-(3-Cyclopropyl-5-((2-fluoro-4-iodophenyl)amino)-6,8-dimethyl-2,4,7-trioxo-3,4,6,7-tetrahydropyrido[4,3-d]pyrimidin-1(2H)-yl)phenyl)amino)-3-oxopropoxy)ethoxy)ethyl)amino)-2-oxoethoxy)phenyl)-3-(3,4-dimethoxyphenyl)propyl (S)-1-((S)-2-(3,4,5-trimethoxyphenyl)butanoyl)piperidine-2-carboxylate], the “MEK1 labelling (immunoblot)” value at MEK1 was “efficient MEK1 labelling”. The “detection/enrichment of MEK1:trametinib:KSR1 complex (immunoblot of MEK1 and KSR1)” value in data set [1] is “detected; also recorded: successful enrichment and competition with trametinib”. Besides, the “cell permeability measured by FKBP12F36V cellular target engagement assay” value on NLuc-FKBP12F36V (rescue of NLuc-FKBP12F36V degradation by dTAG-13, relative to DMSO) is given as “less cell permeable than the (+)-JQ1 derivatives”.
